Here are results for 27 molecules from ChEMBL document CHEMBL1135220, “Novel, potent non-covalent thrombin inhibitors incorporating p(3)-lactam scaffolds” (Bioorg Med Chem Lett, 2002).

A short description of data set [1]: Half life in dogs at 1 mg/kg oral dosing; 35-100 min. The data set is classed as ADME, organism-based, Canis lupus familiaris. Also noted: dose 1 mg/kg, route oral. Particulars: dog, in vivo; call rule not given here.
Data set [2] is described as follows: Maximum plasma concentration was determined in dogs at 1 mg/kg oral dosing; 0.05-0.2 ug/mL. Also noted: dose 1 mg/kg, route oral. Particulars: dog. It is filed as ADME, organism-based, Canis lupus familiaris.
The target in data set [3] is T1, Coagulation factor X (Homo sapiens, UniProt P00742). As to the kind of experiment: Inhibitory constant against human Coagulation factor Xa determined in Vitro.
T1 sequence (P00742 41-179 limits assumed): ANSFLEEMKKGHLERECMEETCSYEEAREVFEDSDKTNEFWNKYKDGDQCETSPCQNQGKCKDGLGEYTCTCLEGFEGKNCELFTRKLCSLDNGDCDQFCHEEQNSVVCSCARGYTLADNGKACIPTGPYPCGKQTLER
T1 sequence (P00742 235-488 limits assumed): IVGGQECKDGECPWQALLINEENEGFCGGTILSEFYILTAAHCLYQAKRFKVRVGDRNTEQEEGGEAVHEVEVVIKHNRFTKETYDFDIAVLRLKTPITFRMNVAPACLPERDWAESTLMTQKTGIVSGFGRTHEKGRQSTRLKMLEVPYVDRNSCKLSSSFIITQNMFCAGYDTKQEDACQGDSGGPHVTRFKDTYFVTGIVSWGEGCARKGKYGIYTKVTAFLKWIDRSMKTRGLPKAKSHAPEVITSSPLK
The target of data set [4] is Prothrombin (Homo sapiens, UniProt P00734). Nature of the data set: Inhibitory constant against human thrombin (FIIa) determined in vitro.
Data set [5] concerns the target Trypsin (Homo sapiens, UniProt P07477+P07478+P35030). Nature of the data set: Inhibitory constant against trypsin determined in Vitro. It is filed as protein assay.
Data set [6] can be described thus: Area Under Curve for the compound was determined in dogs at 1 mg/kg oral dosing; 25-50 ug min/mL. The data set is classed as ADME, organism-based, Canis lupus familiaris. Also noted: dose 1 mg/kg, route oral. Particulars: dog, in vivo.
For data set [7], the target named is T1, Coagulation factor X. Nature of the data set: Inhibitory constant against human Coagulation factor Xa determined in Vitro; Inact. means Inactive.
In data set [8] the target is Serine protease 1 (Homo sapiens, UniProt P07477). As to the kind of experiment: Inhibitory constant against trypsin determined in Vitro; Inact. means Inactive.
Chain of Serine protease 1 (P07477 whole entry): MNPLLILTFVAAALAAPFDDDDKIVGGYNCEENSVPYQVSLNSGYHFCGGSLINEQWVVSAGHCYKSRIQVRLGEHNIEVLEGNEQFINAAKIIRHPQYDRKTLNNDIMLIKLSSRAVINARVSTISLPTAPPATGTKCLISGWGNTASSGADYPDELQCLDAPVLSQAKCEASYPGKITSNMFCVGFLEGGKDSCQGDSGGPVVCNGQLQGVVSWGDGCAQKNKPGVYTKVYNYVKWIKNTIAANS
Data set [9] is described as follows: Oral bioavailability in dog (fasted). The data set is classed as ADME, organism-based, Canis lupus familiaris. Particulars: in vivo.
Data set [10] in a line: Maximum plasma concentration was determined as in dogs at 1 mg/kg oral dosing Cmax; 0.05-0.2 ug/mL. The data set is classed as ADME, organism-based, Canis lupus familiaris. Also noted: dose 1 mg/kg, route oral. Particulars: dog.

By half-life is commonly meant how long it takes for the measured level to halve. For orientation: Cmax means the peak of the concentration-time curve. The term Ki denotes a dissociation constant, usually derived from enzyme kinetics or from competition with a known ligand. Lower therefore signals tighter binding. As a reminder, the AUC is the area under the concentration-time curve, a measure of exposure. Low readings indicate less exposure, high ones more exposure. Consider `COc1ccc(S(=O)(=O)N[C@H]2CCCCN(CC(=O)Cc3ccc(C(=N)N)cc3)C2=O)cc1OC`, for which the half-life in data set [1] is around 35 min. Besides, the Cmax in data set [2] was around 50 ng/mL. Also, the Ki in [3] was above 338 nM; in data set [4], 13.3 nM; in data set [5], 11.6 nM. This molecule also had an AUC in data set [6] of around 417 ng·h/mL.
In the case of `COC(=O)c1ccccc1CS(=O)(=O)N[C@H]1CCCCN(CC(=O)N[C@@H](CCCNC(=N)N)C(=O)O)C1=O`, the Ki in data set [3] came out at 93 nM; in [4] it was 0.95 nM.
Turning to `N=C(N)c1ccc(CC(=O)CN2CCCC[C@H](NS(=O)(=O)Cc3ccccc3)C2=O)cc1`, the half-life in [1] was around 35 min. For the same molecule, the Cmax in data set [2] is around 50 ng/mL. For the same molecule, the Ki in data set [3] came out at 315 nM; in data set [4], 19.4 nM; in data set [5], 84.6 nM. For the same molecule, in data set [6], the AUC is around 417 ng·h/mL.
For the molecule `N=C(N)N1CCC(CC(=O)CN2C(=O)[C@@H](NS(=O)(=O)c3ccc4c(c3)CCO4)CCc3ccccc32)CC1`, the half-life in [1] is around 25 min. This molecule also registered a Cmax in data set [2] of around 50 ng/mL. Besides, the Ki result is “Not Active” in data set [7], 61 nM in [4] and “Not Active” in [8]. The AUC in data set [6] was around 417 ng·h/mL.
As to `Cc1nc(N)ccc1CC(=O)CN1CCCC[C@H](NS(=O)(=O)Cc2ccccc2)C1=O`, the half-life in [1] was around 35 min. Besides, in data set [2], the highest concentration (Cmax) was around 50 ng/mL. The Ki entry was “Not Active” in data set [7], 92.9 nM in [4] and 1678 nM in data set [5]. Besides, the AUC in data set [6] is around 417 ng·h/mL.
On to `N=C(N)c1ccc(CC(=O)CN2CCCC[C@H](NS(=O)(=O)c3ccc4ccccc4c3)C2=O)cc1`, for which, in data set [1], the half-life was around 35 min. Moreover, the Cmax in [2] was around 50 ng/mL. The Ki is above 338 nM in data set [3], 163 nM in data set [4] and 12.3 nM in data set [5]. Besides, the AUC in data set [6] was around 417 ng·h/mL.
In data set [1], `Cc1nc(N)ccc1CC(=O)CN1CCC[C@H](NS(=O)(=O)Cc2ccccc2)C1=O` came in with a half-life of around 35 min. The molecule further gave a Cmax in data set [2] of around 50 ng/mL. Further, the Ki result in data set [7] was “Not Active”; in data set [4] it was above 397 nM; in data set [5] it was above 1678 nM. The molecule further gave an exposure (AUC) in data set [6] of around 417 ng·h/mL.
In the case of `N=C(N)c1ccc(CC(=O)CN2CCCC[C@H](NS(=O)(=O)c3ccc4c(c3)CCO4)C2=O)s1`, the half-life in data set [1] was around 35 min. Besides, the Cmax in data set [2] was around 50 ng/mL. The Ki in data set [3] came to 52.7 nM; in data set [4], 0.6 nM; in [5], 5.9 nM. Besides, the AUC in data set [6] was around 417 ng·h/mL.
In data set [1], `Cc1nc(N)ccc1CC(=O)CN1CCCC[C@H](NS(=O)(=O)c2ccc3c(c2)CCO3)C1=O` yielded a half-life of around 35 min. This molecule registered a Cmax in data set [2] of around 50 ng/mL. In addition, the Ki is above 338 nM in data set [3], 39.5 nM in data set [4] and 1678 nM in data set [5]. In data set [6], this molecule gave an AUC of around 417 ng·h/mL.
With `COc1ccc(OC)c(S(=O)(=O)N[C@H]2CCCCN(CC(=O)Cc3ccc(C(=N)N)cc3)C2=O)c1`, the half-life in data set [1] was around 35 min. This molecule had a Cmax in data set [2] of around 50 ng/mL. Also, the results for the Ki in [3], in data set [4] and in data set [5] were above 338 nM, 9 nM and 35.2 nM, respectively. In data set [6], this molecule showed an AUC of around 417 ng·h/mL.
For `N=C(N)NCCC[C@H](NC(=O)CN1CCCC[C@H](NS(=O)(=O)Cc2ccccc2)C1=O)C(=O)O`, the Ki in data set [3] was determined as 40 nM; in data set [4] it was 0.54 nM.
With `N=C(N)c1ccc(CC(=O)CN2CCCC[C@H](NS(=O)(=O)c3ccccc3)C2=O)cc1`, the half-life in data set [1] is around 35 min. The Cmax in data set [2] was around 50 ng/mL. Further, the Ki in [3] was above 338 nM; in [4] it was 19.4 nM; in data set [5], 8.3 nM. The molecule also gave an AUC in data set [6] of around 417 ng·h/mL.
The molecule `N[C@H]1CC[C@H](CC(=O)CN2CCCC[C@H](NS(=O)(=O)Cc3ccccc3)C2=O)CC1` registered a half-life in data set [1] of around 35 min. Further, in data set [2], the Cmax was around 50 ng/mL. The Ki entry in data set [7] was “Not Active”; in [4], 195 nM; in [8] it was “Not Active”. This molecule gave an AUC in data set [6] of around 417 ng·h/mL.
In the case of `N=C(N)c1ccc(CC(=O)CN2CCCC[C@H](NS(=O)(=O)c3ccc4c(c3)CCO4)C2=O)cc1`, in data set [1], the half-life was around 35 min. This molecule also had a Cmax in data set [2] of around 50 ng/mL. Further, the values for the inhibitory constant (Ki) in data set [3], in data set [4] and in data set [5] were above 338 nM, 6.2 nM and 3.2 nM, respectively. In addition, the AUC in data set [6] is around 417 ng·h/mL.
`N=C(N)c1ccc(CC(=O)CN2CCCC[C@H](NS(=O)(=O)c3ccc4c(c3)CCO4)C2=O)c(F)c1` gave a half-life in [1] of around 35 min. The Cmax in [2] was around 50 ng/mL. The results for the Ki in data set [3], in data set [4] and in data set [5] were above 338 nM, 29.8 nM and 7.6 nM, respectively. The molecule further gave an AUC in [6] of around 417 ng·h/mL.
In data set [1], `N[C@H]1CC[C@H](CC(=O)CN2CCCC[C@H](NS(=O)(=O)c3ccc4c(c3)CCO4)C2=O)CC1` gave a half-life of around 35 min. This molecule also showed a Cmax in [2] of around 50 ng/mL. The results for the Ki entry in data set [7], in data set [4] and in [5] were “Not Active”, 53.2 nM and above 1678 nM, respectively. In addition, in [6], the AUC is around 417 ng·h/mL.
`COc1ccc(S(=O)(=O)N[C@H]2CCCCN(CC(=O)CC3CCN(C(=N)N)CC3)C2=O)cc1OC` registered a half-life in data set [1] of around 35 min. Moreover, the Cmax in [2] was around 50 ng/mL. Further, the results for the inhibitory constant (Ki) in [3], in [4] and in data set [5] were above 338 nM, 85.7 nM and above 1678 nM, respectively. The molecule also showed an AUC in data set [6] of around 417 ng·h/mL.
For `N=C(N)N1CCC(CC(=O)CN2CCCC[C@H](NS(=O)(=O)c3ccccc3)C2=O)CC1`, the half-life in data set [1] is around 35 min. Moreover, the Cmax in [2] is around 50 ng/mL. Moreover, the figures for the Ki in [3], in data set [4] and in data set [5] were above 338 nM, 71.4 nM and 1678 nM, respectively. The AUC in data set [6] is around 417 ng·h/mL.
Take `N=C(N)c1ccc(CC(=O)CN2C(=O)[C@@H](NS(=O)(=O)c3ccc4c(c3)CCO4)CCc3ccccc32)cc1`: in data set [1], the half-life is around 35 min. Moreover, in data set [2], the Cmax is around 50 ng/mL. The Ki in data set [3] was above 338 nM; in data set [4], 14.4 nM; in [5] it was 19.5 nM. In [6], this molecule gave an AUC of around 417 ng·h/mL.
The term bioavailability denotes dose-corrected exposure relative to a reference, in per cent. Molecule `N=C(N)NCCC[C@@H](C=O)NC(=O)CN1CCCC[C@H](NS(=O)(=O)Cc2ccccc2)C1=O` returned a bioavailability in [9] of 66%. Also, the Ki in [5] is listed as 18 nM.
The molecule `N/C(=N\O)c1ccc(CC(=O)CN2C(=O)[C@@H](NS(=O)(=O)c3ccc4c(c3)CCO4)CCc3ccccc32)cc1` yielded a half-life in data set [1] of around 35 min. Also, in data set [2], the Cmax is around 50 ng/mL. For the same molecule, the Ki entry in data set [7] is “Not Active”; in data set [4], above 397 nM; in [8], “Not Active”. For the same molecule, the AUC in data set [6] is around 417 ng·h/mL.
In turn, `N=C(N)N1CCC(CC(=O)CN2CCCC[C@H](NS(=O)(=O)c3ccc4c(c3)CCO4)C2=O)CC1` gave a half-life in [1] of around 35 min. For the same molecule, the Cmax in data set [2] was around 50 ng/mL. Further, the Ki entry in data set [7] is “Not Active”; in data set [4], 23.8 nM; in data set [5] it was 872.5 nM. Further, the exposure (AUC) in data set [6] is around 417 ng·h/mL.
Regarding `COC(=O)c1ccccc1CS(=O)(=O)N[C@H]1CCCCN(CC(=O)N[C@H](C=O)CCCNC(=N)N)C1=O`, in data set [9], the bioavailability is 67%. This molecule gave a Ki in [5] of 16 nM.
In the case of `N/C(=N\O)c1ccc(CC(=O)CN2CCCC[C@H](NS(=O)(=O)c3ccc4c(c3)CCO4)C2=O)cc1`, the half-life in data set [1] was around 35 min. Moreover, in data set [2], the Cmax is around 50 ng/mL. Besides, the values for the Ki entry in data set [7], in [4] and in data set [5] were “Not Active”, 240 nM and 80.5 nM, respectively. Further, in data set [6], the AUC is around 417 ng·h/mL.
The molecule `COc1ccc(OC)c(S(=O)(=O)N[C@H]2CCCCN(CC(=O)CC3CCN(C(=N)N)CC3)C2=O)c1` had a half-life in data set [1] of around 35 min. For the same molecule, the Cmax in [2] is around 50 ng/mL. In addition, the Ki result in data set [7] was “Not Active”; in data set [4] it was 167 nM; in [8] it was “Not Active”. For the same molecule, the AUC in data set [6] was around 417 ng·h/mL.
In data set [1], `N=C(N)N1CCC(CC(=O)[C@@H]2Cc3cccc4c3N2C(=O)[C@@H](NS(=O)(=O)c2ccc3c(c2)CCO3)CC4)CC1` registered a half-life of around 35 min. Moreover, the Cmax in [10] was around 50 ng/mL. Also, the Ki in [3] is 49.2 nM; in [4] it was 10.8 nM; in data set [5] it was 2.5 nM. Besides, the AUC in data set [6] is around 417 ng·h/mL.
On to `O=C(Cc1ccc2[nH]ncc2c1)CN1CCCC[C@H](NS(=O)(=O)c2ccc3c(c2)CCO3)C1=O`, for which, in [1], the half-life is around 35 min. Further, the Cmax in data set [2] was around 50 ng/mL. Moreover, the Ki entry is “Not Active” in [7], 283 nM in [4] and “Not Active” in [8]. The same molecule showed an AUC in data set [6] of around 417 ng·h/mL.
